In the CheMixHub viscosity set:

Test: xn = mol fraction of the nth substance listed

Cc1cc(C)cc(C)c1 + C1CCCCC1
viscosity [mPa·s], 101 kPa
Details	303 K	303.15 K	308.15 K	313 K	313.15 K	318.15 K	323 K	323.15 K
x1 = 0.1001	–	0.7294	0.6779	–	0.6321	0.591	–	0.5529
x1 = 0.1028	0.7231	–	–	0.6296	–	–	0.5473	–
x1 = 0.2001	–	0.6775	0.6326	–	0.5925	0.5562	–	0.5229
x1 = 0.2002	0.6616	–	–	0.5833	–	–	0.518	–
x1 = 0.299	0.6393	–	–	0.5651	–	–	0.5048	–
x1 = 0.3	–	0.6444	0.6039	–	0.5675	0.5341	–	0.5036
x1 = 0.396	0.6187	–	–	0.5553	–	–	0.4899	–
x1 = 0.4	–	0.6263	0.5881	–	0.5539	0.5231	–	0.4941
x1 = 0.4961	0.6085	–	–	0.5439	–	–	0.4892	–
x1 = 0.5	–	0.6163	0.5791	–	0.5465	0.5165	–	0.4886
x1 = 0.5971	0.6054	–	–	0.54	–	–	0.4863	–
x1 = 0.6	–	0.6104	0.5748	–	0.5431	0.5143	–	0.4873
x1 = 0.699	0.6015	–	–	0.5379	–	–	0.4853	–
x1 = 0.7	–	0.6099	0.5746	–	0.5428	0.514	–	0.4871
x1 = 0.7992	0.6055	–	–	0.543	–	–	0.4858	–
x1 = 0.8001	–	0.6119	0.5767	–	0.5451	0.5165	–	0.4904
x1 = 0.8983	0.6081	–	–	0.543	–	–	0.4893	–
x1 = 0.9	–	0.6162	0.5819	–	0.551	0.5223	–	0.494

Cc1cc(C)cc(C)c1 + C1CCOC1
298.15 K, 101 kPa
Details	viscosity [mPa·s]
x2 = 0.0735	0.5973
x2 = 0.1513	0.5921
x2 = 0.2274	0.5863
x2 = 0.2986	0.5793
x2 = 0.3672	0.5728
x2 = 0.4305	0.5659
x2 = 0.4912	0.5568
x2 = 0.6055	0.5353
x2 = 0.6784	0.5237
x2 = 0.7516	0.512
x2 = 0.828	0.4999
x2 = 0.879	0.4857
x2 = 0.9412	0.4724

Cc1cc(C)cc(C)c1 + CC(C)=O
307.35 K, 101.33 kPa
Details	viscosity [mPa·s]
x2 = 0.1387	0.541
x2 = 0.4493	0.447
x2 = 0.5975	0.403
x2 = 0.6567	0.383
x2 = 0.7521	0.362
x2 = 0.9168	0.313

O=S=O + CC(C)=O
298.15 K, 101 kPa
Details	viscosity [mPa·s]
x1 = 0.04866	0.3122
x1 = 0.1662	0.3313
x1 = 0.2057	0.3365
x1 = 0.2466	0.3415
x1 = 0.2858	0.343
x1 = 0.4007	0.3471

O=C1CCCN1 + CC(C)CO
Details	viscosity [mPa·s]
303.15 K, 101 kPa, x1 = 0.9753	10.15

O=C1CCCN1 + CC(O)CO
Details	viscosity [mPa·s]
298.15 K, 101.33 kPa, x1 = 0.06223	38.56
298.15 K, 101.33 kPa, x1 = 0.09322	36.35
298.15 K, 101.33 kPa, x1 = 0.1974	30.23
298.15 K, 101.33 kPa, x1 = 0.2925	26.21
298.15 K, 101.33 kPa, x1 = 0.3956	23.01
298.15 K, 101.33 kPa, x1 = 0.5612	19.49
298.15 K, 101.33 kPa, x1 = 0.5963	18.87
298.15 K, 101.33 kPa, x1 = 0.7003	17.36
298.15 K, 101.33 kPa, x1 = 0.7843	16.26
298.15 K, 101.33 kPa, x1 = 0.8992	14.8
298.15 K, 101.33 kPa, x1 = 0.9581	13.93
308.15 K, 101.33 kPa, x1 = 0.05382	23.04
308.15 K, 101.33 kPa, x1 = 0.1106	20.74
308.15 K, 101.33 kPa, x1 = 0.1986	18.2
308.15 K, 101.33 kPa, x1 = 0.3058	15.92
308.15 K, 101.33 kPa, x1 = 0.3989	14.45
308.15 K, 101.33 kPa, x1 = 0.512	12.98
308.15 K, 101.33 kPa, x1 = 0.5975	12.23
308.15 K, 101.33 kPa, x1 = 0.6998	11.39
308.15 K, 101.33 kPa, x1 = 0.8034	10.71
308.15 K, 101.33 kPa, x1 = 0.8984	9.939
308.15 K, 101.33 kPa, x1 = 0.957	9.465
313.15 K, 101 kPa, x1 = 0.0803	16.98
313.15 K, 101 kPa, x1 = 0.1596	15.07
313.15 K, 101 kPa, x1 = 0.2403	13.58
313.15 K, 101 kPa, x1 = 0.3201	12.41
313.15 K, 101 kPa, x1 = 0.4011	11.51
313.15 K, 101 kPa, x1 = 0.481	10.79
313.15 K, 101 kPa, x1 = 0.5617	10.17
313.15 K, 101 kPa, x1 = 0.6394	9.657
313.15 K, 101 kPa, x1 = 0.7192	9.2
313.15 K, 101 kPa, x1 = 0.7993	8.742
313.15 K, 101 kPa, x1 = 0.8723	8.338
313.15 K, 101 kPa, x1 = 0.9579	7.845
318.15 K, 101.33 kPa, x1 = 0.06032	14.2
318.15 K, 101.33 kPa, x1 = 0.09973	13.37
318.15 K, 101.33 kPa, x1 = 0.1931	11.82
318.15 K, 101.33 kPa, x1 = 0.3054	10.43
318.15 K, 101.33 kPa, x1 = 0.3986	9.613
318.15 K, 101.33 kPa, x1 = 0.5124	8.834
318.15 K, 101.33 kPa, x1 = 0.6012	8.369
318.15 K, 101.33 kPa, x1 = 0.6899	7.95
318.15 K, 101.33 kPa, x1 = 0.7926	7.488
318.15 K, 101.33 kPa, x1 = 0.9004	7.031
318.15 K, 101.33 kPa, x1 = 0.9614	6.774

Cc1cc(C)cc(C)c1 + CCC(C)=O
307.35 K, 101.33 kPa
Details	viscosity [mPa·s]
x2 = 0.1256	0.549
x2 = 0.3266	0.5
x2 = 0.4175	0.479
x2 = 0.5581	0.443
x2 = 0.6213	0.428
x2 = 0.7133	0.409
x2 = 0.8019	0.389
x2 = 0.9035	0.368

[Cl-].[Cl-].[Cl-].[Cl-].[Sn+4] + CCCC(=O)OC
101 kPa, x1 = 0.335
Details	viscosity [mPa·s]
298.15 K	22.06
323.15 K	4.849

CCCCCC(CC)NC(=O)Nc1ccc(C)c(NC(=O)NC(CC)CCCCC)c1 (centres undefined) + CCCCC
Details	viscosity [mPa·s]
293.15 K, 100 kPa, x1 = 0.0002	86

O=S=O + CCCCCCC
298.15 K, 101 kPa
Details	viscosity [mPa·s]
x1 = 0.0265	0.3767
x1 = 0.0489	0.3719

CC(C)Cc1ccccc1 + CCCCCCCCCCCC
viscosity [mPa·s], 102 kPa
Details	x1 = 0.1006	x1 = 0.2004	x1 = 0.2996	x1 = 0.3998	x1 = 0.5	x1 = 0.6001	x1 = 0.6993	x1 = 0.7997	x1 = 0.8998
293.15 K	1.41	1.35	1.28	1.23	1.17	1.13	1.09	1.05	1.03
303.15 K	1.19	1.14	1.09	1.05	1	0.97	0.945	0.915	0.896
313.15 K	1.02	0.984	0.949	0.915	0.88	0.848	0.823	0.798	0.781
323.15 K	0.892	0.861	0.83	0.8	0.773	0.749	0.726	0.706	0.691

CCC(C)CC + CCCCCCCCCCCCCCCC
298 K, 101.33 kPa
Details	viscosity [mPa·s]
x1 = 0.1071	2.635
x1 = 0.2084	2.224
x1 = 0.3095	1.87
x1 = 0.4069	1.554
x1 = 0.5054	1.274
x1 = 0.6034	1.022
x1 = 0.7044	0.7813
x1 = 0.8037	0.5939
x1 = 0.902	0.4194

CCCCCCCCCCCCCCC + CCCCCCCCCCO
100 kPa, x1 = 0.2565
Details	viscosity [mPa·s]
298.2 K	6.68
308.2 K	4.73
318.2 K	3.47

Cc1cc(C)cc(C)c1 + CCCCCCCCCCO
viscosity [mPa·s], 101 kPa
Details	298.15 K	308.15 K
x1 = 0.0752	9.427	6.401
x1 = 0.1354	7.818	5.334
x1 = 0.2083	6.204	4.256
x1 = 0.265	5.179	3.572
x1 = 0.3292	4.194	2.936
x1 = 0.3894	3.456	2.445
x1 = 0.4633	2.728	1.942
x1 = 0.5303	2.202	1.595
x1 = 0.6033	1.754	1.279
x1 = 0.6643	1.458	1.084
x1 = 0.7341	1.195	0.901
x1 = 0.7998	1.002	0.768
x1 = 0.8724	0.838	0.669
x1 = 0.9442	0.728	0.606

O=C(Cc1ccccc1)c1ccccc1 + CCCCCOC(C)=O
298.15 K, 101 kPa
Details	viscosity [mPa·s]
x1 = 0.0268	0.8294
x1 = 0.0344	0.849

O=S=O + CCCCN(CCCC)CCCC
303.15 K, 100 kPa
Details	viscosity [mPa·s]
x1 = 0.21	1.4
x1 = 0.35	3.2
x1 = 0.45	12.9

O=C1CCCN1 + CCCCO
Details	viscosity [mPa·s]
293.15 K, 101 kPa, x1 = 0.8554	10.75

Cc1cc(C)cc(C)c1 + CCCO
293.15 K, 101 kPa
Details	viscosity [mPa·s]
x2 = 0.2	0.748
x2 = 0.4	0.855
x2 = 0.6	1.075
x2 = 0.8	1.419

CC=CC(=O)OCC + CCO
viscosity [mPa·s], 101 kPa
Details	x1 = 0.0991	x1 = 0.1985	x1 = 0.2994	x1 = 0.3961	x1 = 0.5006	x1 = 0.6	x1 = 0.6968	x1 = 0.7816	x1 = 0.8996
293.15 K	1.026	0.929	0.9257	0.9219	0.878	0.8293	0.8016	0.8351	0.8122
298.15 K	0.9334	0.8523	0.8465	0.8404	0.8061	0.7663	0.7402	0.7648	0.7535
303.15 K	0.8498	0.7812	0.7751	0.7739	0.7411	0.7061	0.6855	0.7052	0.7
313.15 K	0.7166	0.6615	0.6607	0.6588	0.6372	0.6091	0.5958	0.6134	0.6108
323.15 K	0.6156	0.5747	0.5702	0.5686	0.5537	0.5363	0.5284	0.5414	0.5401

Cc1cc(C)cc(C)c1 + CCO
293.15 K, 101 kPa
Details	viscosity [mPa·s]
x2 = 0.2	0.718
x2 = 0.4	0.764
x2 = 0.6	0.854
x2 = 0.8	0.983

O=S=O + CCOC(C)=O
298.15 K, 101 kPa
Details	viscosity [mPa·s]
x1 = 0.115	0.4299
x1 = 0.236	0.4289
x1 = 0.35	0.4239

O=S=O + CCOCC
298.15 K, 101 kPa
Details	viscosity [mPa·s]
x1 = 0.0574	0.2303
x1 = 0.0951	0.2353
x1 = 0.1329	0.24
x1 = 0.1607	0.2443

O=C1CCCN1 + CN1CCCC1=O
298.15 K, 100 kPa
Details	viscosity [mPa·s]
x1 = 0.0188	1.759
x1 = 0.0298	1.79
x1 = 0.0397	1.827
x1 = 0.0507	1.835
x1 = 0.065	1.874
x1 = 0.0793	1.963
x1 = 0.097	1.992
x1 = 0.1004	1.999
x1 = 0.1498	2.168
x1 = 0.1993	2.356
x1 = 0.2495	2.568
x1 = 0.3001	2.808
x1 = 0.3497	3.067
x1 = 0.3986	3.361
x1 = 0.4492	3.704
x1 = 0.4994	4.091
x1 = 0.5493	4.53
x1 = 0.5989	5.022
x1 = 0.6497	5.608
x1 = 0.6992	6.263
x1 = 0.7487	7.017
x1 = 0.7986	7.914
x1 = 0.8494	8.966
x1 = 0.8984	10.14
x1 = 0.918	10.67
x1 = 0.9287	10.99
x1 = 0.9394	11.33
x1 = 0.959	12.01
x1 = 0.9695	12.29
x1 = 0.9798	12.64
x2 = 0.0111	12.96
